Reference: publication PMC12498288 (Frontiers in Immunology, 2025)
“And” between values parts separate entries of the source, which are not always exact repeats. Equal entries are not always repeated.

What was measured:
[1] = test system: lymphocytes, T cells and B cells; assay: RESPIRE Phase 2 trial, lymphocytes, T and B cells in blood (flow cytometry); format: in vivo, human; details: 30-day observation period
Method: Patients receiving glucocorticoids as standard of care treatment were excluded from the analyses. Experiments were performed by CheckImmune GmbH according to the companies’ SOPs. In short, presence of lymphocytes, T cells and B cells were determined using Flow cytometry analysis. Fresh whole blood from hospitalized SARS-CoV-2 infected patients was stained with the aforementioned DuraClone antibody panels for 15 min at room-temperature and lysed for 15 min at room temperature following the standard staining protocol. Sample acquisition was carried out using the Navios Flow Cytometer (Beckman Coulter). Data analysis was conducted using Kaluza software before being sent to the LIMS system. This procedure is fit for purpose validated under ISO and GCP guidelines.

[2] = LDH cytotoxicity assay, CC50 determination on Calu-3 cells; format: cell-based; details: human
Method: In short, 2x10^4 Calu-3 cells were seeded per well in 96-well cell culture plates in IMDM medium containing 10% FBS, 100 units/mL penicillin, and 100 µg/mL streptomycin two days before treatment. Prior to the treatment, the medium was removed, and the cells were washed once with PBS. The cells were subsequently treated in quadruplicates with 600, 500, 400, 350, 300, 250, 200, 150, or 100 µM zapnometinib dissolved in DMSO and diluted in IMDM medium containing 5% FBS, 100 units/mL penicillin, and 100 µg/mL streptomycin. The DMSO concentration upon treatment was 1%. A DMSO control was supplied with 1% DMSO (without zapnometinib). An untreated control (spontaneous LDH release control) was supplied with cell culture medium (5% FBS). Viability assessment with LDH assay was performed after 24 and 48 h treatment. Therefore, 10 µL 10X Lysis Buffer were added to one well of each quadruplicate treatment set (maximum LDH release control) and the plates were incubated 45 min at 37 °C and 5% CO2. […] After 30 min incubation in the dark at RT, 50 µL stop solution were added to the wells and the absorbance was read at 490 nm and 680 nm. The absorbance measured at 680 nm was subtracted from the absorbance at 490 nm and the %Viability was calculated using the following formula: […]

[3] = test system: SARS-CoV-2 (BetaCoV/Munich/BavPat1/2020)
[4] = test system: cytokine and chemokine levels; assay: Cytokine and chemokine levels in SARS-CoV-2-infected Syrian hamsters (serum ELISA, lung RT-qPCR); format: in vivo; details: 4 dpi, between groups after infection and treatment
Method: Eleven- to thirteen-week-old male Syrian hamsters (Janvier, France) with a body weight of 113-148 g were infected on day 0 intranasally with SARS-CoV-2 (1x10^3 median tissue culture infectious dose (TCID50) BetaCoV/Munich/BavPat1/2020) in a total volume of 0.1 mL PBS divided between the nostrils. Zapnometinib (100 mg/kg) was administered p.o. at 4 or 24 h p.i. and the animals in both groups were treated thereafter with 75 mg/kg zapnometinib once daily. The animals in the control group received vehicle (5% DMSO, 15% Kolliphor, 80% PBS) 4 h p.i. and thereafter once daily. Serum samples were collected from hamsters before infection (0 dpi) and at 4 dpi, and the levels of different cytokines and chemokines (IL1-β, TNF-α, IL-6, and IP-10) were analyzed by ELISA (Assay Genie, Ireland). […] Tetramethylbenzidine (TMB) substrate was added and the color change in the wells was used as readout for the ELISA. The optical density (OD) at 450 nm was read. Cytokine and chemokine concentrations were calculated following the manufacturer’s instructions for interpolating unknown concentrations from a standard curve.
Supplementary Figure 3. […] A. Cytokine levels in serum samples collected at 0 dpi (before infection and treatment, bottom row) and 4 dpi (top row) from vehicle-treated and zapnometinib-treated Syrian hamsters from the efficacy study analyzed by ELISA are shown. […]

SMILES: O=C(O)c1ccc(F)c(F)c1Nc1ccc(I)cc1Cl [zapnometinib]
- Lymphocytes, Increase compared to Placebo [1]: 44.5%
- Plasma B cells, Increase compared to Placebo [1]: 61.8%
- Memory B cells, Increase compared to Placebo ([1]; p = 0.0377): -37.4%
- T cells, Increase compared to Placebo ([1]; p = 0.0409): 73.7%
- CC50 at 24 h ([2]; 24 h treatment): 532 µM and 218 µg/mL
- CC50 at 48 h ([2]; 48 h treatment): 471 µM and 193 µg/mL
- tolerability ([3]; 100 mg/kg then 75 mg/kg daily p.o., both groups): well tolerated
- viral titers in nasal turbinates ([3]; […], did not reach statistical significance): trend toward lower mean viral titers
- lung inflammation (infiltrating inflammatory cells, consolidation, decreased air containing space) ([3]; hamster, in vivo): less severe
- mean body weight loss ([3]; hamster, in vivo): 8-11%
- mean viral titer in throat swabs ([3]; hamster, in vivo): still lower in the throat swabs of drug-treated animals, although no statistically significant differences
- percentage of lung injury in lung tissue (gross pathology) ([3]; hamster, in vivo): significantly reduced
- reduction in replication-competent virus in throat swabs (TCID50 assay) ([3]; hamster, in vivo): 1.1 log10 and 1.3 log10
- reduction of infectious viral titer in nasal turbinates (TCID50 assay) ([3]; hamster, in vivo): 1.3 log10
- reduction of viral load in nasal turbinates (RT-qPCR) ([3]; hamster, in vivo): 1.1 log10
- viral load in throat swabs ([3]; hamster, in vivo): comparable
- viral titer reduction (number of viral copies) in throat swabs (RT-qPCR) ([3]; hamster, in vivo): 1.1 log10 and 1.2 log10
- treatment-related adverse effects ([3]; zapnometinib-treated groups vs vehicle-treated group): no treatment-related adverse effects were observed
- cytokine and chemokine levels in serum (ELISA) and lung tissue (RT-qPCR) [4]: no major differences
